According to patent publication US20080057054A1, “Modulation of Phagocytosis in Neurons” (Vlaams Interuniversitair Instituut Voor Biotechnol, priority 2004, published 2008):

Biological target: T1, γ-secretase (Homo sapiens, UniProt P49768)
T1 construct: endogenous in cells; host or cells: HeLa cells
Test: γ-secretase luciferase reporter assay (Gal4VP16 inducer constructs)
Type: cell-based
Set-up: dose or concentration left out as unconfirmed
Conditions: lysed after 16 hrs; for nuclear translocation of the inducer fragment (luciferase activity), APP: APP-Gal4VP16 inducer in Hela cells; for nuclear translocation of the inducer fragment (luciferase activity), Notch: NotchΔE-Gal4VP16 inducer in Hela cells
Text: In wild-type hippocampal neurons, TLN localizes to the plasmalemma whereas in 30% of PS1−/− neurons, TLN additionally accumulates in large somatic structures, the identity of which remained elusive (Annaert et al., 2001). […] Therefore we tested whether TLN is a γ-secretase substrate. In 15 day old PS1−/− hippocampal cultures we could not detect any TLN C-terminal fragment (CTF) as apposed to APP-CTF that readily accumulate. Even upon Semliki Forest Virus (SFV)-induced overexpression, no TLN-CTF was detected. Since no putative mechanism of shedding of the TLN ectodomain is known, we generated a TLNΔE that could serve as a potential γ-secretase substrate. No intracellular domain fragments were however detected indicating the absence of γ-secretase cleavage. […] Release of a potential intracellular domain of TLN can be measured via the activity of luciferase. […] To investigate whether the TLN transmembrane domain could be a γ-secretase substrate in the context of the APP protein, we swapped the transmembrane regions of TLN and APP to create an APP/TLNTMR-chimaera. Even in this case no activity could be detected. Therefore we conclude that TLN is most likely not a γ-secretase substratum.
pSFV constructs encoding human APP, murine TLN and TLNΔE have been described (Annaert et al., 2001). APP and NotchΔE were cloned into the EcoRV site in front of the Gal4VP16 sequence in pIPAdApt vector. A construct encoding 10 aa of the ectodomain, the transmembrane and cytosolic domains of TLN was obtained by PCR and ligated in pGEMT containing the TLN signal peptide (SP). SP-TLNΔE was next cloned into pIPAdApt and GAL 4VP16 was inserted resulting in a pIPAdApt-SP-TLNΔE-Gal4-VP16 construct. For the APP/TLNTMR chimaera, the coding region for APP-TMR was replaced by a PCR fragment encoding the TLN-TMR. Luciferase assay. Hela cells were transfected with 200 ng pFRluc plasmid (UAS-responsive luciferase construct, Stratagene) and 200 ng inducer plasmid using Fugene ([…]) and after 16 hrs lysed and assayed (Victor2, PerkinElmer).

| SMILES | nuclear translocation of the inducer fragment (luciferase activity), APP | nuclear translocation of the inducer fragment (luciferase activity), Notch |
| --- | --- | --- |
| CC(C)C[C@H](NC(=O)[C@H](Cc1ccccc1)C[C@@H](O)[C@H](Cc1ccccc1)NC(=O)OC(C)(C)C)C(=O)N[C@@H](Cc1ccccc1)C(N)=O [L685,458] | strongly inhibited | strongly inhibited |
| C[C@H](NC(=O)Cc1cc(F)cc(F)c1)C(=O)N[C@H](C(=O)OC(C)(C)C)c1ccccc1 [DAPT] | strongly inhibited | strongly inhibited |
